The nature of the data set: photoluminescence quantum yield (fraction); solvent given as SMILES.
Where [1] appears, read: in O=P(c1ccccc1)(c1ccccc1)c1ccccc1Oc1ccccc1P(=O)(c1ccccc1)c1ccccc1.

The structures appear in SMILES notation. Where “and” joins values, the source holds several entries; their conditions need not be identical. Equal values may be shown once.

This note sets out measurements from the Deep4Chem optical property database.

As to `COc1cc(N(c2ccc(C=C(C#N)C#N)c(OC)c2)c2ccc(C=C(C#N)C#N)c(OC)c2)ccc1C=C(C#N)C#N`, the photoluminescence quantum yield runs as follows: (in C1COCCO1) 0.025; (in CC#N) 0.047; (in CC(C)=O) 0.074; (in CCOC(C)=O) 0.166; (in CN(C)C=O) 0.026; (in CO) 0.043. The photoluminescence quantum yield came to 0.018 (in Cc1ccccc1), 0.025 (in ClC(Cl)Cl) and 0.028 (in ClCCl).

`CCCCCCCCCCCCOc1cc(C(=O)Nc2ccc(-c3ccc4c(c3)C(=O)c3cc(-c5ccc(NC(=O)c6cc(OCCCCCCCCCCCC)c(OCCCCCCCCCCCC)c(OCCCCCCCCCCCC)c6)cc5)ccc3-4)cc2)cc(OCCCCCCCCCCCC)c1OCCCCCCCCCCCC` returned a photoluminescence quantum yield (in C1CCOC1) of 0.06.

`Cc1cc(C)c(C2=C3C=C(/C=C/C(=O)OC(C)(C)C)C=[N+]3[B-](F)(F)n3c2ccc3N2CCCC2)c(C)c1` gave a photoluminescence quantum yield (in ClCCl) of 0.57.

Take `F[B-]1(F)OC(c2ccccc2)=Cc2ccc3ccccc3[n+]21`: the photoluminescence quantum yield by setting is: (in ClC(Cl)Cl) 0.53; (in ClCCl) 0.57.

In turn, `N#Cc1cccc(-c2nc(-c3ccccc3)c(-c3ccccc3)[nH]2)c1` had a photoluminescence quantum yield (in CO) of 0.2.

The molecule `Cc1c(C(=O)c2ccc3c4cccc5cccc(c6cccc2c63)c54)c2ccc3cccc4c5cccc6ccc1c(c65)c2c34` registered a photoluminescence quantum yield (in ClCCl) of 0.069.

Regarding `CCCCN1c2ccccc2B(c2ccccc2C(F)(F)F)c2ccccc21`, the photoluminescence quantum yield (in ClCCl) was 0.9.

`N#Cc1cc2nc3c(nc2cc1C#N)C1c2ccc(N(c4ccccc4)c4ccccc4)cc2C3c2ccc(N(c3ccccc3)c3ccccc3)cc21`: the photoluminescence quantum yield worked out at 0.44 (in C1CCCCC1), 0.01 (in CC#N), 0.35 (in Cc1ccccc1) and 0.02 (in ClCCl).

The molecule `COc1cc(-c2ncc(-c3ccncc3)o2)cc(OC)c1OC` displayed a photoluminescence quantum yield (in ClCCl) of 0.54.

For `N#Cc1cccc(C#N)c1-n1c2ccccc2c2cc(-c3ccc4c(c3)c3ccccc3n4-c3c(C#N)cccc3C#N)ccc21`, the photoluminescence quantum yield by setting is: (in Cc1ccccc1) 0.72; under setting [1], 0.72.

Take `c1ccc2cc(-n3c4ccccc4c4ccccc43)ccc2c1`: the photoluminescence quantum yield came out at 0.48 (in C1CCCCC1), 0.46 (in CCOC(C)=O) and 0.32 (in CO).

As to `N#Cc1cc(C#Cc2c(F)c(F)nc(F)c2F)c(C#Cc2c(F)c(F)nc(F)c2F)cc1C#N`, under “in CC#N”, the photoluminescence quantum yield came out at 0.49.

For the molecule `O=[N+]([O-])c1ccc(-c2nc3c(c4c2-c2ccccc2CC4)-c2ccccc2CC3)cc1`, the photoluminescence quantum yield reads like this: (in CC#N) 0.037; (in CS(C)=O) 0.085; (in ClCCl) 0.059.

Turning to `CN(C)c1ccc(C2=Nc3scc(-c4ccc([N+](=O)[O-])cc4)[n+]3[B-](F)(F)O2)cc1`, the photoluminescence quantum yield runs as follows: (in C1CCOC1) 0.001; (in CC#N) 0.001; (in Cc1ccccc1) 0.001; (in ClCCl) 0.001.

Under “in CC#N”, `CCC12N=N[C@](CC)(C3C4CCC(C4)C31)C1[C@@H]3CC[C@@H](C3)[C@H]12` (some centres undefined) came in with a photoluminescence quantum yield of 0.19.

In turn, `CCCCCCCCCCCCCCCCCCOC(=O)/C=C/C1=CC2=C(c3c(C)cc(C)cc3C)c3cc(/C=C/C(=O)OCCCCCCCCCCCCCCCCCC)cn3[B-](F)(F)[N+]2=C1` had a photoluminescence quantum yield (in ClCCl) of 0.34.

As to `O=c1c2cc(F)c(O)cc2oc2cc(O)c(F)cc12`, the photoluminescence quantum yield (in CCO) turned out to be 0.26.

Take `CC[Si](C#Cc1c2c(=O)c3ccccc3c2c(C#C[Si](CC)(CC)CC)c2c(=O)c3ccccc3c12)(CC)CC`: the photoluminescence quantum yield (in ClC(Cl)Cl) is 0.08.

As for `O=c1oc2ccc3ccccc3c2nc1-c1ccc(Cl)cc1`, the photoluminescence quantum yield (in c1ccccc1) is 0.478.

Turning to `O=C1c2ccc(N(c3ccc(-c4ccccc4)cc3)c3ccc(-c4ccccc4)cc3)cc2C(=O)c2ccc(N(c3ccc(-c4ccccc4)cc3)c3ccc(-c4ccccc4)cc3)cc21`, the photoluminescence quantum yield reads like this: (in Cc1ccccc1) 0.1; (in c1ccc2c(c1)c1ccccc1n2-c1ccc(-c2ccc(-n3c4ccccc4c4ccccc43)cc2)cc1) 0.42.

As for `CCCCCCN1C(=O)c2cccc3c(-c4ccc([N+](=O)[O-])s4)ccc(c23)C1=O`, the photoluminescence quantum yield (in ClC(Cl)Cl) was determined as 0.

In turn, `CCn1c2ccccc2oc2c(C#N)c3c(oc4ccccc4n3CC)c(C#N)c21` registered a photoluminescence quantum yield (in ClC(Cl)Cl) of 0.44.

Where the note is “in CC#N”, `CCOC(=O)c1c2c3c(ccc(F)c3c3cc4c(cc13)[Si](C)(C)O[Si]4(C)C)N(C)C2=O` returned a photoluminescence quantum yield of 0.47.

Where the note is “in CC#N”, `Cc1ccc(-c2sc(/C(C#N)=C/c3ccc(C#N)cc3)nc2-c2ccc(Cl)cc2)cc1` registered a photoluminescence quantum yield of 0.11.

In the case of `CCN(CC)c1ccc2c(-c3ccccc3C(=O)O)c3c([o+]c2c1)/C(=C/c1ccc(N(C)C)s1)CCC3`, the photoluminescence quantum yield (in ClCCl) stood at 0.04.

On to `O=c1c2cc(F)ccc2nc2n1[B-](F)(F)[n+]1ccccc1-2`, for which the photoluminescence quantum yield reads like this: (in CC#N) 0.86; (in ClCCl) 0.99.

For the setting “in Cc1ccccc1”, `c1ccc(-n2c(-c3cccc4ccccc34)nc3c4cccc5ccc6cccc(c6c54)c32)cc1` returned a photoluminescence quantum yield of 1.

As to `COc1cc2c(cc1-c1ccccc1)Cc1c3c(c4c(c1-2)-c1cc(OC)c(-c2ccccc2)cc1C4)C(=O)N(CCC(C)C)C3=O`, the photoluminescence quantum yield by setting is: (in C1CCOC1) 0.53; (in CC#N) 0.46; (in CC(C)=O) 0.38; (in CCOC(C)=O) 0.61; (in CS(C)=O) 0.47; (in Cc1ccccc1) 0.48. Moreover, the photoluminescence quantum yield is, setting by setting: (in ClC(Cl)Cl) 0.64; (in ClCCl) 0.63.

With `C(=C\c1ncc(-c2ccc(OCc3ccccc3)c(OCc3ccccc3)c2)o1)/c1cccc(N2CCCC2)c1`, the photoluminescence quantum yield (in ClCCl) was 0.35.

With `Cc1cc(C)c(C2=C3C=c4c(c5ccccc5c5ccccc45)=[N+]3[B-](F)(F)n3c2cc2c4ccccc4c4ccccc4c23)c(C)c1`, the photoluminescence quantum yield by setting is: (in C1CCCCC1) 0.64; (in C1CCOC1) 0.55; (in CC#N) 0.55; (in Cc1ccccc1) 0.51; (in ClCCl) 0.51 and 0.55.

For the molecule `CC(C)(C)c1ccc2c(c1)c1cc(C(C)(C)C)ccc1n2-c1ccccc1-c1nc(-c2ccccc2P(=O)(c2ccccc2)c2ccccc2)nc(-c2ccccc2P(=O)(c2ccccc2)c2ccccc2)n1`, the photoluminescence quantum yield under setting [1] is 0.38.

In turn, `CN(C)c1ccc(C#Cc2ccc3ccc4ccc(C#Cc5ccc(N(C)C)cc5)c5ccc2c3c45)cc1` yielded a photoluminescence quantum yield (in CCCCCC) of 0.632, a photoluminescence quantum yield (in CO) of 0.256 and a photoluminescence quantum yield (in ClCCl) of 0.534.

`CCOC(=O)CC[N+]1=c2cc3c(cc2CCC1)=Cc1c(c2cc4c5c(c2oc1=O)CCCN5CCC4)O3` came in with a photoluminescence quantum yield (in CC#N) of 0.024, a photoluminescence quantum yield (in CO) of 0.017, a photoluminescence quantum yield (in ClCCl) of 0.125 and a photoluminescence quantum yield (in O) of 0.002.

Molecule `CCN(CC)c1c2ccc(=[N+]3CCCCC3)cc-2oc2cc(N3CCCCC3)ccc12` had a photoluminescence quantum yield (in ClCCl) of 0.11.

Take `Fc1ccc(/C=C/c2nc3c4ccccc4c4ccccc4c3o2)cc1`: the photoluminescence quantum yield (in CC#N) is 0.24.

In turn, `COCCOCCOCCNc1cc2c3c(c(NCCOCCOCCOC)cc4c3c1C(=O)N(CCOCCOCCOC)C4=O)C(=O)N(CCOCCOCCOC)C2=O` displayed a photoluminescence quantum yield (in CO) of 0.33, a photoluminescence quantum yield (in ClC(Cl)Cl) of 0.56 and a photoluminescence quantum yield (in O) of 0.039.

Take `CC(C)(C)OC(=O)NC(Cc1ccccc1)C(=O)OCc1ccc2c3cccc4cccc(c5cccc1c52)c43` (centres undefined): the photoluminescence quantum yield (in CCO) is 0.86.

Consider `CC(C)[Si](C#Cc1c2ccccc2c(C#C[Si](C(C)C)(C(C)C)C(C)C)c2nc3c4ccccc4c(=O)c4ccccc4c3nc12)(C(C)C)C(C)C`, for which the photoluminescence quantum yield (in ClCCl) came to 0.75.

`O=c1c2ccccc2nc2ccccn12` yielded a photoluminescence quantum yield (in ClCCl) of 0.96.

As for `CCc1ccc(-n2c3ccccc3c3cc4c(cc32)c2ccccc2n4-c2ccc(CC)s2)s1`, the photoluminescence quantum yield (in ClC(Cl)Cl) is 0.023.

`Fc1c(F)c(F)c([B-]2(c3c(F)c(F)c(F)c(F)c3F)Oc3c(ccc4c5c(ccc34)C=[N+](c3ccccc3)[B-](c3c(F)c(F)c(F)c(F)c3F)(c3c(F)c(F)c(F)c(F)c3F)O5)C=[N+]2c2ccccc2)c(F)c1F` came in with a photoluminescence quantum yield (in Cc1ccccc1) of 0.81 and a photoluminescence quantum yield (in ClCCl) of 0.8.

For `CCCCN1C(=O)c2cccc3c(N(C)C)ccc(c23)C1=O`, the photoluminescence quantum yield (in Cc1ccccc1) came out at 0.95.

Consider `CCOC(=O)/N=c1/oc2c(OC)cccc2cc1C#N`, for which the photoluminescence quantum yield (in ClCCl) came to 0.0034.

As for `CC(C)[Si](C#Cc1c2cc3ccccc3cc2c(C#C[Si](C(C)C)(C(C)C)C(C)C)c2nc3cc4c(cc3nc12)C1c2ccccc2C4c2ccccc21)(C(C)C)C(C)C`, the photoluminescence quantum yield turned out to be 0.45 (in CCCCCC) and 0.11 (in ClCCl).

Regarding `CN(C)C(=O)c1ccc(-c2nc3ccc(N(C)C)cc3s2)cc1`, the photoluminescence quantum yield reads like this: (in C1CCCCC1) 0.84; (in CC#N) 0.85; (in CC(C)O) 0.81; (in CO) 0.92; (in CS(C)=O) 0.9; (in ClC(Cl)Cl) 0.89. Under “in c1ccccc1”, this molecule came in with a photoluminescence quantum yield of 0.98.

For the setting “in C1CCCCC1”, `CCCCc1cc2cccc3cc(CCCC)c4cc(-c5cc6[b-]7c(c5)c(CCCC)cc5cccc(cc6CCCC)[n+]75)cc1[b-]4[n+]23` showed a photoluminescence quantum yield of 0.06.

For `CC1(C)C(/C=C/C=C/C=C/C=C2/N(c3ccc(S(=O)(=O)[O-])cc3)c3ccc(S(=O)(=O)[O-])cc3C2(C)C)=[N+](c2ccc(S(=O)(=O)[O-])cc2)c2ccc(S(=O)(=O)[O-])cc21`, the photoluminescence quantum yield runs as follows: (in CO) 0.47; (in O) 0.21.

`COc1ccc(/C=C/C=C/C2=NC3C(=O)NC(N)=NC3N2[C@H]2C[C@H](O)[C@@H](CO)O2)cc1` (some centres undefined) registered a photoluminescence quantum yield (in C1COCCO1) of 0.71, a photoluminescence quantum yield (in CC#N) of 0.68 and a photoluminescence quantum yield (in CO) of 0.56.
